For this assay, the system named is test organism of Delvotest SP-NT. The assay is described as follows: Microbial growth inhibition test (DSM Delvotest SP-NT, reference or modified with streptomycin in the test medium): detection limit of antibiotics in spiked milk. Format: cell-based. Particulars: for Detection limit: spiked milk, 64° C., cut-off Z-value 0; for Effect of an aminoglycoside antibiotic in the test medium on the sensitivity of the test for the antibiotic: aminoglycoside antibiotic (streptomycin) added to test medium versus reference test. The procedure:
As a reference, a commercially available test system without any added aminoglycoside antibiotic (DSM Delvotest® SP-NT, plates containing 8×12 test wells) was used. In addition, two different test systems were prepared by modifying the reference test by adding the aminoglycoside antibiotic streptomycin to the test medium in a final concentration of 100 ppb or 1000 ppb. The detection limits of four different antibiotics were measured in the reference test and in the tests with modified medium containing different concentrations of streptomycin. The antibiotics that were measured were streptomycin and dihydrostreptomycin (DH-streptomycin) (both belonging to the aminoglycoside antibiotic family), penicillin G (belonging to the beta-lactam antibiotic family), and oxytetracycline (belonging to the tetracycline antibiotic family) Five different concentrations of each antibiotic (see Table 1) were measured. Hundred microliter antibiotic-free milk or hundred microliter milk spiked with the respective concentrations of antibiotic was added to the test medium (170 μl) and incubated at 64° C. in a water bath. The tests were visually determined at the point in time where a sample without antibiotic had changed colour from purple to yellow. At this point, the plates were cooled in an ice bath for 5 minutes. The cooled plates were scanned on a Delvo® scanner. The colour of each well was expressed as a Z-value; a purple colour gives rise to a positive Z-value, while a yellow colour has a negative Z-value. The Z-value of test results with samples without antibiotic is typically […]. Detailed description of the scanning technology and the expression of the colour in Z-values are described in WO 03/033728. For the determination of the detection limit for each antibiotic, a dose-response function (Z-value versus concentration of antibiotic) was constructed. The detection limit is defined as the antibiotic concentration where the S-shaped dose-response function has a Z-value equal to the cut-off value. For Delvotest® SP-NT a cut-off Z-value of 0 was used.

Setting [1] is: Streptomycin concentration in test 100 ppb.
[2] abbreviates: Streptomycin concentration in test 1000 ppb.
The mark [3] stands for this setting: Streptomycin concentration in test 0 ppb (reference Delvotest SP-NT).

Experimental findings from US9732370B2, “Method for the determination of the presence of an antibiotic in a fluid” (DSM IP ASSETS B.V., priority 2013, dated 2017) are described below.

As to `CN[C@@H]1[C@H](O[C@H]2[C@H](O[C@H]3[C@H](O)[C@@H](O)[C@H](NC(=N)N)[C@@H](O)[C@@H]3NC(=N)N)O[C@@H](C)[C@]2(O)CO)O[C@@H](CO)[C@H](O)[C@H]1O` [DH-streptomycin, dihydrostreptomycin], the “Effect of an aminoglycoside antibiotic in the test medium on the sensitivity of the test for the antibiotic” value (“Effect of an aminoglycoside antibiotic” below) was “increases”. In addition, the Detection limit under setting [1] is reported as 982 ppb. The compound further returned a Detection limit under setting [2] of 445 ppb.
On to `CN(C)[C@@H]1C(O)=C(C(N)=O)C(=O)[C@@]2(O)C(O)=C3C(=O)c4c(O)cccc4[C@@](C)(O)[C@H]3[C@H](O)[C@@H]12` [Oxytetracycline, oxytetracycline], for which the “Effect of an aminoglycoside antibiotic” value was “no effect”. The compound further displayed a Detection limit under setting [3] of 264 ppb. The Detection limit under setting [1] is 239 ppb. Under setting [2], this compound gave a Detection limit of 343 ppb.
The corresponding values for `CC1(C)S[C@@H]2[C@H](NC(=O)Cc3ccccc3)C(=O)N2[C@H]1C(=O)O` [Penicillin G, penicillin G] are “no effect”, 1.04 ppb, 0.95 ppb and 1.07 ppb.
With `[H]/N=C(/N)N[C@H]1[C@H](O)[C@@H](O)[C@H](O[C@@H]2O[C@@H](C)[C@](O)(C=O)[C@H]2O[C@@H]2O[C@@H](CO)[C@H](O)[C@@H](O)[C@@H]2NC)[C@@H](N/C(N)=N\[H])[C@@H]1O` [Streptomycin, streptomycin], the “Effect of an aminoglycoside antibiotic” value is recorded as “increases”. The Detection limit under setting [1] amounted to 1186 ppb. This compound gave a Detection limit under setting [2] of 676 ppb.
